Where two headings read alike, the source gives them in different places.
What was measured:
[1] = tested on: Influenza virus A/whistling swan/Shimane/499/83 (H5N3); type: cell-based, avian influenza virus; settings: for effect on the avian influenza virus (ability to inactivate): Example 10, each potassium soap diluted to 0.035 M; for infection dose of the avian influenza virus reduced to / ability to inactivate: Example 9, diluted to 0.0035 mol/L with purified water; for ability to inactivate the avian influenza virus, potassium versus sodium oleate soap: Example 4, 0.35 M oleate soap tested as in Example 2
feline calicivirus = assay: Inactivation ability against infectivity of feline calicivirus (TCID50 on CRFK cells); type: cell-based; settings: for inactivation ability against the feline calicivirus, potassium versus sodium oleate soap: Example 4, 0.35 M oleate soap
[2] = Example 9, diluted to 0.0035 mol/L with purified water
[3] = Example 8, sample No. 19 versus surface-active agents other than soap (Table 4, 10.32 %)

Question: Which “effect on the avian influenza virus (ability to inactivate)” value (from here on “effect on the avian influenza virus”) [1] does the source give for `CCCCC/C=C\C/C=C\CCCCCCCC(=O)[O-].[K+]` [C18:2 (linoleate) soap] here?
Answer: excellent

Question: How did the “effect on the avian influenza virus” value [1] turn out when `CCC=CCC=CCC=CCCCCCCCC(=O)[O-].[K+]` [C18:3 (linolenate) soap] was run?
Answer: weak

Question: How did the “infection dose of the feline calicivirus reduced to / ability to inactivate” value (feline calicivirus) turn out when `CCCCCCCC/C=C\CCCCCCCC(=O)N(C)CC(=O)O` [oleoyl sarcosine] was run?
Answer: could not be reduced

Question: What about the “infection dose of the avian influenza virus reduced to / ability to inactivate” value [1] of the same compound?
Answer: about one-thousandth

Question: Which “inactivation ability against the feline calicivirus, potassium versus sodium oleate soap” value (feline calicivirus) does the source give for `CCCCCCCC/C=C\CCCCCCCC(=O)[O-].[K+]` [potassium oleate soap, potassium oleate] here?
Answer: no difference

Question: What about the “infection dose of the feline calicivirus reduced to / ability to inactivate” value (feline calicivirus; [2]) of the same compound?
Answer: excellent antiviral activity

Question: What about the “ability to inactivate the avian influenza virus, potassium versus sodium oleate soap” value [1] of the same compound?
Answer: no difference

Question: And the “infection dose of the avian influenza virus reduced to / ability to inactivate” value [1]?
Answer: excellent antiviral activity

Question: And the “effect on the avian influenza virus” value [1]?
Answer: excellent

Question: What does the source list for `CCCCCCCC/C=C\CCCCCCCC(=O)[O-].[Na+]` [sodium oleate soap, sodium oleate]?
Answer: inactivation ability against the feline calicivirus, potassium versus sodium oleate soap (feline calicivirus): no difference; ability to inactivate the avian influenza virus, potassium versus sodium oleate soap [1]: no difference

Question: How did the “infection dose of the feline calicivirus reduced to / ability to inactivate” value (feline calicivirus) turn out when `CCCCCCCC/C=C\CCCCCCCCOS(=O)(=O)[O-].[Na+]` [sodium oleyl sulfate] was run?
Answer: one-tenth or less

Question: What about the “infection dose of the avian influenza virus reduced to / ability to inactivate” value [1] of the same compound?
Answer: one-tenth or less

Question: Which “infection dose of the feline calicivirus reduced to / ability to inactivate” value (feline calicivirus; [2]) does the source give for Polyoxyethylene sorbitan monooleate here?
Answer: no ability to inactivate

Question: And the “infection dose of the avian influenza virus reduced to / ability to inactivate” value [1]?
Answer: no ability to inactivate

Question: What does the source list for “Sodium polyoxyethylene alkyl ether sulfate [compound 37]”?
Answer: cytotoxicity (CRFK cells): high cytotoxicity; virus inactivation ability / antiviral activity (feline calicivirus) (feline calicivirus; [3]): low antiviral activity; cytotoxicity (MDCK (+) cells): high cytotoxicity; virus inactivation ability / antiviral activity (avian influenza virus) [1, 3]: low antiviral activity

Source: patent publication US20120046362A1, “ANTIVIRAL AGENT AND CLEANSING AGENT” (priority 2009, published 2012)
